Results reported in paper PMC4306520 (Journal of Medicinal Chemistry, 2014).

What was measured:
[1] = tested on: other Ser hydrolases in PANC-1 cell lysate; experiment: Serine hydrolase FP probe displacement assay, other serine hydrolases; assay type: binding, human; conditions: 5 μM FP probe
[2] = tested on: BxPC-3 cells; experiment: Apoptosis assay; assay type: cell-based, human
[3] = tested on: BxPC-3 cells; experiment: MTT assay with palmitate supplementation; assay type: cell-based, human
[4] = tested on: PANC-1/FASN and PANC-1/Vec cells; experiment: Colony formation survival assay, PANC-1/FASN vs PANC-1/Vec; assay type: cell-based, human
[5] = tested on: BxPC-3 cells; experiment: Intracellular pH; assay type: cell-based, human; conditions: BxPC-3, different concentrations, 72 h
[6] = target: FASN in PANC-1 cell lysate (Homo sapiens, UniProt P49327); experiment: Serine hydrolase FP probe displacement assay, FASN; assay type: binding; conditions: 5 μM FP probe
Chain of FASN in PANC-1 cell lysate (P49327 whole entry): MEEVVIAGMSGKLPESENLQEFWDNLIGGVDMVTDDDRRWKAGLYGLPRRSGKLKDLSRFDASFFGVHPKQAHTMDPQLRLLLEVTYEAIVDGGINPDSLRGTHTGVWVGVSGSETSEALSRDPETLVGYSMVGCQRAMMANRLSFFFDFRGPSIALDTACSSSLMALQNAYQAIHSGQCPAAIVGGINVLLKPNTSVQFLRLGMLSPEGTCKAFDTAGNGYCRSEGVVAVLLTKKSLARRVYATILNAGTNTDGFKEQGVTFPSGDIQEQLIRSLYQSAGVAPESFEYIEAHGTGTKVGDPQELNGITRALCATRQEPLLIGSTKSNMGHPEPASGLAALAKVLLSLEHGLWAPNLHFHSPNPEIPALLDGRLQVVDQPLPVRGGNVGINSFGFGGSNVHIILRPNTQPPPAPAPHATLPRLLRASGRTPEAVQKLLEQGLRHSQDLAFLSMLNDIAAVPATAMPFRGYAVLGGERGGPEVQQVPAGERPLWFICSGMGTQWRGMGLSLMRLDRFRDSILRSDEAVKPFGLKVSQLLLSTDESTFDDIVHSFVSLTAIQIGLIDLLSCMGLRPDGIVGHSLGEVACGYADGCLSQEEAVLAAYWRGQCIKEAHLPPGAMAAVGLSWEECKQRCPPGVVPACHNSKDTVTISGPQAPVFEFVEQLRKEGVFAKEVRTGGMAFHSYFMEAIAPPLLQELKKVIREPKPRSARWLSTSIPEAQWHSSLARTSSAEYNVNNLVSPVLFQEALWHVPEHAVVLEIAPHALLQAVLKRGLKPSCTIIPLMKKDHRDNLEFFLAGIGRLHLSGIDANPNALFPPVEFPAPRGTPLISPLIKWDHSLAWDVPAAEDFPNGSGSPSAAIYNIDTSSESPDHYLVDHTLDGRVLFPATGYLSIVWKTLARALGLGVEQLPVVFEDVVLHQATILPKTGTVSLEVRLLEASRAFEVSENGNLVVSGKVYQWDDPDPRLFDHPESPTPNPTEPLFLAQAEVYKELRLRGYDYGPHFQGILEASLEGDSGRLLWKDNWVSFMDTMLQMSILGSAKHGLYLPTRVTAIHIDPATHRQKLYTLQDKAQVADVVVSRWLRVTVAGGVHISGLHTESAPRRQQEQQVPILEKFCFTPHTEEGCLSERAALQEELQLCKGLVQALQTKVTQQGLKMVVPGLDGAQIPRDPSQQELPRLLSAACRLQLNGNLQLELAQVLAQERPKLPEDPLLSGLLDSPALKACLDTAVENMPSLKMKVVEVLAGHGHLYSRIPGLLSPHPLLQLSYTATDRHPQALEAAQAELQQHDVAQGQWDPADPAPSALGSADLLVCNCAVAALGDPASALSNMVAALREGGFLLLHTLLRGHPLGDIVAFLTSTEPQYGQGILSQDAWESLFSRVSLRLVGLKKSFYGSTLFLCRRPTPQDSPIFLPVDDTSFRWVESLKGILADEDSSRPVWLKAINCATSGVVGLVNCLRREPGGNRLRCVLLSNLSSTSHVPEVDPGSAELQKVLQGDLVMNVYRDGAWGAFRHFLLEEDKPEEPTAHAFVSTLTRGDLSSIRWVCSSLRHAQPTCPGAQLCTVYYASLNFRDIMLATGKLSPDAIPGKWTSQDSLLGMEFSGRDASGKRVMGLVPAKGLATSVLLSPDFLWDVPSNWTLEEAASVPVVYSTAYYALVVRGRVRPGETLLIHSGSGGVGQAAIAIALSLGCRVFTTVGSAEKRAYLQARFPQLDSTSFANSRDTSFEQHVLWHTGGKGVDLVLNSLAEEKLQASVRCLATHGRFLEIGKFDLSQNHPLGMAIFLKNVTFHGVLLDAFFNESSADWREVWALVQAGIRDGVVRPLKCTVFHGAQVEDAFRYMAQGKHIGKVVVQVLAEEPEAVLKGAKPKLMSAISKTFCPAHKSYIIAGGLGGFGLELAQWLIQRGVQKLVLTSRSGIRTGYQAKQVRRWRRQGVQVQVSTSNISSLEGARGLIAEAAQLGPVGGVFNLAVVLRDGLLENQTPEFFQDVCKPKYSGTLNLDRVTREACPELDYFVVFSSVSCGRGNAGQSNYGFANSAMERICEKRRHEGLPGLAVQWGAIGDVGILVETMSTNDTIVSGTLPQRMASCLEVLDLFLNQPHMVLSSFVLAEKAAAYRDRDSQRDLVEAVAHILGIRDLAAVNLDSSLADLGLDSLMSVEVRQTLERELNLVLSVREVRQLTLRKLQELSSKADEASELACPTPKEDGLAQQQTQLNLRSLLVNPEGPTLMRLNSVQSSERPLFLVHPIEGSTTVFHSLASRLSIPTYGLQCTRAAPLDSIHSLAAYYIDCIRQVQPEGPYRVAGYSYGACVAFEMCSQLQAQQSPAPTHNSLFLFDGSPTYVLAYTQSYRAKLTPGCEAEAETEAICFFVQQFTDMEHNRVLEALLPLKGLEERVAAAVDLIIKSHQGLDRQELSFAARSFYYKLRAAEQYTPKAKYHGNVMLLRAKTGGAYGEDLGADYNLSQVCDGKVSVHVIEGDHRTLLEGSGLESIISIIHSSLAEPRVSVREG

[7] = tested on: FASN; experiment: Western blot of FASN expression; assay type: cell-based, human
[8] = tested on: BxPC-3 cells; experiment: Extracellular pH; assay type: cell-based, human; conditions: BxPC-3, 100 μM, 72 h, data not shown

| SMILES | effect on binding of FP probe to other Ser hydrolases [1] | effect of palmitate supplementation on lansoprazole-induced apoptosis ([2]; 3.75 μM palmitate) | induction of apoptosis (DNA fragments, cleaved PARP-1) ([2]; ELISA 72 h, PARP Western blot 24 h) | effect of palmitate supplementation on lansoprazole cytotoxicity ([3]; 3.75 μM palmitate) | sensitivity of PANC-1/FASN cells versus PANC-1/Vec cells [4] | effect on intracellular pH [5] | inhibition of FP serine hydrolase probe labeling of FASN [6] | effect on total FASN level ([7]; lansoprazole treatment, Figure 4D) | effect on extracellular pH [8] | effect of palmitate alone on cell survival ([3]; BxPC-3, 3.75 μM) | effect of palmitate on FASN expression ([7]; 3.75 μM palmitate, Figure 5B) |
| --- | --- | --- | --- | --- | --- | --- | --- | --- | --- | --- | --- |
| Cc1c(OCC(F)(F)F)ccnc1C[S+]([O-])c1nc2ccccc2[nH]1 (centres unmarked) [Lansoprazole] | no effect on the binding of the FP probe to other Ser hydrolases | reduced lansoprazole-induced apoptosis | dose-dependently caused formation of DNA fragments and cleaved PARP-1 | significantly increased cellular resistance to lansoprazole | significantly more sensitive to lansoprazole than the control PANC-1/Vec cells | no significant effect on intracellular pH | inhibited labeling of FASN by the FP probe in a dose-dependent manner | no effect on the total FASN level | no change in extracellular pH | – | – |
| CCCCCCCCCCCCCCCC(=O)O [palmitate] | – | – | – | – | – | – | – | – | – | no significant effect on BxPC-3 cell survival | did not reduce FASN expression |
